Measurements published in patent US9630922B2, “3-spiro-7-hydroxamic acid tetralins as HDAC inhibitors” (Forma Therapeutics, Inc., priority 2015, dated 2017).

Biological target: T1, HDAC6 (Homo sapiens, UniProt Q9UBN7)
T1 construct: Full length human recombinant HDAC6 protein was expressed in baculoviral system; made in house; host or cells: baculoviral system
T1 sequence (Q9UBN7 1-1215): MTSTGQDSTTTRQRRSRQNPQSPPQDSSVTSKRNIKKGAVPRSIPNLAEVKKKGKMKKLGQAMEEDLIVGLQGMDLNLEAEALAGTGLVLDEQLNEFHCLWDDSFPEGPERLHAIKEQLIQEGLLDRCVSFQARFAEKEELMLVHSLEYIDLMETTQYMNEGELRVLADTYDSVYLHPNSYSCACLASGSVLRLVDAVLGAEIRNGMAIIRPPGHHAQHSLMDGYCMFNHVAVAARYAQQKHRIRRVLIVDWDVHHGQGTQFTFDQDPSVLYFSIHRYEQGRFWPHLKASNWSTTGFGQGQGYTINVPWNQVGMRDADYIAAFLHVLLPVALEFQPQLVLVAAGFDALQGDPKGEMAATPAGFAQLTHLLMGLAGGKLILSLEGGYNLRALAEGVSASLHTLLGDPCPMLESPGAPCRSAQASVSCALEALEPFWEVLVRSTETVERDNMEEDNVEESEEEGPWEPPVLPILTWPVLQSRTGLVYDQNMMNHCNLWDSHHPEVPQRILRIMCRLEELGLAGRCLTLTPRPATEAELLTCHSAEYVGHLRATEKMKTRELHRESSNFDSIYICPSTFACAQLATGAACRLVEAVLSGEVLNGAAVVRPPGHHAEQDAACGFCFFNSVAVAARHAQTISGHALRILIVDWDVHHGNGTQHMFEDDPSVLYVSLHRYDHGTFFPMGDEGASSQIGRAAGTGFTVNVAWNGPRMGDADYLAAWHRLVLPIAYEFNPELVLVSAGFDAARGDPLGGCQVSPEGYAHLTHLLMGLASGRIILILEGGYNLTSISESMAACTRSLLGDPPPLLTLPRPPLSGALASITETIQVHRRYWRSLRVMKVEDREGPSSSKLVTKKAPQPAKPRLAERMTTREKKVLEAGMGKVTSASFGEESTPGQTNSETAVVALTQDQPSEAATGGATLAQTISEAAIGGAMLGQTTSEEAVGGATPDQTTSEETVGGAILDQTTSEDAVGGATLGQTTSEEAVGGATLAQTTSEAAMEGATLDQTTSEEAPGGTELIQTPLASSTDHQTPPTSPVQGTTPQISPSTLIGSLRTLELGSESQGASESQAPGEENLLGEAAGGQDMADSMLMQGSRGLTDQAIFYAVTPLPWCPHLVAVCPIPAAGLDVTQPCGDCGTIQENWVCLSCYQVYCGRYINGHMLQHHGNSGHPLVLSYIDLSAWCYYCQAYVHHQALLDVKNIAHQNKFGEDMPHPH
Experiment: In vitro Histone Deacetylase Assay (enzymatic HDAC6 electrophoretic mobility shift assay)
Assay type: biochemical
Settings: full length human recombinant HDAC6, 1 nM enzyme, 2 μM peptide substrate RHKK(Ac)-NH2, 25° C.; read-out: HDAC6 activity range
Method in brief: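 Deacetylation was read by microfluidic mobility shift as product/(substrate+product) peak ratio and normalised to 0% and 100% inhibition controls. Reactions used 1 nM baculovirus-expressed full-length human HDAC6 and 2 μM labelled RHKK(Ac)-NH2 in pH 7.5 HEPES buffer with 1% DMSO at 25 °C. IC50 was from 4-parameter fits of 12 concentrations.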

Row | Structure (SMILES) | IC50 [nM]
1 | O=C(NO)c1ccc2c(c1)CC[C@@]1(CCN(Cc3ccc(S(=O)(=O)C(F)(F)F)cc3)C1=O)C2 [Compound I-107, (S)-N-hydroxy-2′-oxo-1′-(4-((trifluoromethyl)sulfonyl)benzyl)-3,4-dihydro-1H-spiro[naphthalene-2,3′-pyrrolidine]-6-carboxamide] | 100 to 500
2 | N#Cc1cccc(N2CC[C@@]3(CCc4cc(C(=O)NO)ccc4C3)C2=O)c1 [Compound I-116, (S)-1′-(3-cyanophenyl)-N-hydroxy-2′-oxo-3,4-dihydro-1H-spiro[naphthalene-2,3′-pyrrolidine]-6-carboxamide] | ≤ 100
3 | O=C(NO)c1ccc2c(c1)CC[C@@]1(CCN(c3cccc(F)c3)C1=O)C2 [Compound I-117, (S)-1′-(3-fluorophenyl)-N-hydroxy-2′-oxo-3,4-dihydro-1H-spiro[naphthalene-2,3′-pyrrolidine]-6-carboxamide] | ≤ 100
4 | COc1ccc(N2CC[C@@]3(CCc4cc(C(=O)NO)ccc4C3)C2=O)cn1 [Compound I-118, (S)-N-hydroxy-1′-(6-methoxypyridin-3-yl)-2′-oxo-3,4-dihydro-1H-spiro[naphthalene-2,3′-pyrrolidine]-6-carboxamide] | ≤ 100
5 | O=C(NO)c1ccc2c(c1)CC[C@]1(CCN(c3ccc(F)c(F)c3)C1=O)C2 [Compound I-119, (R)-1′-(3,4-difluorophenyl)-N-hydroxy-2′-oxo-3,4-dihydro-1H-spiro[naphthalene-2,3′-pyrrolidine]-6-carboxamide] | ≤ 100
6 | O=C(NO)c1ccc2c(c1)CC[C@]1(CCN(c3ccc(F)cc3)C1=O)C2 [Compound I-120, (R)-1′-(4-fluorophenyl)-N-hydroxy-2′-oxo-3,4-dihydro-1H-spiro[naphthalene-2,3′-pyrrolidine]-6-carboxamide] | ≤ 100
7 | O=C(NO)c1ccc2c(c1)CC[C@@]1(CCN(CC3COC3)C1=O)C2 [Compound I-122, (S)-N-hydroxy-1′-(oxetan-3-ylmethyl)-2′-oxo-3,4-dihydro-1H-spiro[naphthalene-2,3′-pyrrolidine]-6-carboxamide] | 100 to 500
8 | O=C(NO)c1ccc2c(c1)CC[C@]1(CCN(c3cccc(F)c3F)C1=O)C2 [Compound I-123, (R)-1′-(2,3-difluorophenyl)-N-hydroxy-2′-oxo-3,4-dihydro-1H-spiro[naphthalene-2,3′-pyrrolidine]-6-carboxamide] | ≤ 100
9 | COc1ccc(N2CC[C@]3(CCc4cc(C(=O)NO)ccc4C3)C2=O)cc1 [Compound I-124, (R)-N-hydroxy-1′-(4-methoxyphenyl)-2′-oxo-3,4-dihydro-1H-spiro[naphthalene-2,3′-pyrrolidine]-6-carboxamide] | ≤ 100
10 | COc1cccc(N2CC[C@]3(CCc4cc(C(=O)NO)ccc4C3)C2=O)c1F [Compound I-125, (2R)-1′-(2-fluoro-3-methoxyphenyl)-N-hydroxy-2′-oxo-3,4-dihydro-1H-spiro[naphthalene-2,3′-pyrrolidine]-6-carboxamide] | ≤ 100
11 | COc1cccc(N2CC[C@@]3(CCc4cc(C(=O)NO)ccc4C3)C2=O)c1F [Compound I-126, (2S)-1′-(2-fluoro-3-methoxyphenyl)-N-hydroxy-2′-oxo-3,4-dihydro-1H-spiro[naphthalene-2,3′-pyrrolidine]-6-carboxamide] | ≤ 100
12 | COc1ccc(N2CC[C@@]3(CCc4cc(C(=O)NO)ccc4C3)C2=O)c(F)c1 [Compound I-127, (2S)-1′-(2-fluoro-4-methoxyphenyl)-N-hydroxy-2′-oxo-3,4-dihydro-1H-spiro[naphthalene-2,3′-pyrrolidine]-6-carboxamide] | ≤ 100
13 | COc1cc(N2CC[C@]3(CCc4cc(C(=O)NO)ccc4C3)C2=O)ccc1F [Compound I-128, (2R)--(4-fluoro-3-methoxyphenyl)-N-hydroxy-2′-oxo-3,4-dihydro-1H-spiro[naphthalene-2,3′-pyrrolidine]-6-carboxamide] | ≤ 100
14 | COc1cc(N2CC[C@@]3(CCc4cc(C(=O)NO)ccc4C3)C2=O)ccc1F [Compound I-129, (2S)-1′-(4-fluoro-3-methoxyphenyl)-N-hydroxy-2′-oxo-3,4-dihydro-1H-spiro[naphthalene-2,3′-pyrrolidine]-6-carboxamide] | ≤ 100
15 | O=C(NO)c1ccc2c(c1)CC[C@@]1(CCN(c3ccc(Cl)cn3)C1=O)C2 [Compound I-130, (S)-1′-(5-chloropyridin-2-yl)-N-hydroxy-2′-oxo-3,4-dihydro-1H-spiro[naphthalene-2,3′-pyrrolidine]-6-carboxamide] | ≤ 100
16 | Cc1ncccc1N1CC[C@]2(CCc3cc(C(=O)NO)ccc3C2)C1=O [Compound I-131, (R)-N-hydroxy-1′-(2-methylpyridin-3-yl)-2′-oxo-3,4-dihydro-1H-spiro[naphthalene-2,3′-pyrrolidine]-6-carboxamide] | ≤ 100
17 | Cc1ncccc1N1CC[C@@]2(CCc3cc(C(=O)NO)ccc3C2)C1=O [Compound I-132, (S)-N-hydroxy-1′-(2-methylpyridin-3-yl)-2′-oxo-3,4-dihydro-1H-spiro[naphthalene-2,3′-pyrrolidine]-6-carboxamide] | ≤ 100
18 | Cc1ccc(N2CC[C@]3(CCc4cc(C(=O)NO)ccc4C3)C2=O)cn1 [Compound I-133, (R)-N-hydroxy-1′-(6-methylpyridin-3-yl)-2′-oxo-3,4-dihydro-1H-spiro[naphthalene-2,3′-pyrrolidine]-6-carboxamide] | ≤ 100

Other lines, results leading:

Row | IC50 [nM] | Structure (SMILES)
19 | ≤ 100 | COc1cccc(N2CC[C@]3(CCc4cc(C(=O)NO)ccc4C3)C2=O)c1 [Compound I-108, (R)-N-hydroxy-1′-(3-methoxyphenyl)-2′-oxo-3,4-dihydro-1H-spiro[naphthalene-2,3-pyrrolidine]-6-carboxamide]
20 | ≤ 100 | O=C(NO)c1ccc2c(c1)CC[C@]1(CCN(C3CC3)C1=O)C2 [Compound I-109, (R)-1′-cyclopropyl-N-hydroxy-2′-oxo-3,4-dihydro-1H-spiro[naphthalene-2,3′-pyrrolidine]-6-carboxamide]
21 | ≤ 100 | O=C(NO)c1ccc2c(c1)CC[C@]1(CCN(c3cncc(F)c3)C1=O)C2 [Compound I-110, (R)-1′-(5-fluoropyridin-3-yl)-N-hydroxy-2′-oxo-3,4-dihydro-1H-spiro[naphthalene-2,3′-pyrrolidine]-6-carboxamide]
22 | ≤ 100 | COc1ccccc1N1CC[C@]2(CCc3cc(C(=O)NO)ccc3C2)C1=O [Compound I-111]
23 | ≤ 100 | N#Cc1cccc(N2CC[C@]3(CCc4cc(C(=O)NO)ccc4C3)C2=O)c1 [Compound I-112, (R)-1′-(3-cyanophenyl)-N-hydroxy-2′-oxo-3,4-dihydro-1H-spiro[naphthalene-2,3′-pyrrolidine]-6-carboxamide]
24 | ≤ 100 | O=C(NO)c1ccc2c(c1)CC[C@]1(CCN(c3cccc(F)c3)C1=O)C2 [Compound I-113, (R)-1′-(3-fluorophenyl)-N-hydroxy-2′-oxo-3,4-dihydro-1H-spiro[naphthalene-2,3′-pyrrolidine]-6-carboxamide]
25 | ≤ 100 | COc1ccc(N2CC[C@]3(CCc4cc(C(=O)NO)ccc4C3)C2=O)cn1 [Compound I-114, (R)-N-hydroxy-1′-(6-methoxypyridin-3-yl)-2′-oxo-3,4-dihydro-1H-spiro[naphthalene-2,3′-pyrrolidine]-6-carboxamide]
26 | ≤ 100 | COc1ccccc1N1CC[C@@]2(CCc3cc(C(=O)NO)ccc3C2)C1=O [Compound I-115, (S)-N-hydroxy-1′-(2-methoxyphenyl)-2′-oxo-3,4-dihydro-1H-spiro[naphthalene-2,3′-pyrrolidine]-6-carboxamide]
